Where “and” joins values, the source holds several entries; their conditions need not be identical. Equal values may be shown once.
How the values were obtained:
Rattus norvegicus [1] = test: Effect on the plasma cholesterol level in rats at the dose of 10 mg/kg by Acute screen test; type: functional, organism-based; set-up: dose 10 mg/kg
Rattus norvegicus [2] = test: Evaluated for %change in cholesterol fed rats for HDL-C at the dose of 3 mg/kg determined by Chronic screen test; type: functional
Rattus norvegicus [3] = test: Evaluated for %change in cholesterol fed rats for total cholesterol at the dose of 0.03 mg/kg determined by Chronic screen test; type: functional
Rattus norvegicus [4] = test: Evaluated for %change in cholesterol fed rats for total cholesterol at the dose of 3 mg/kg determined by Chronic screen test; type: functional
Rattus norvegicus [5] = test: Evaluated for %change in cholesterol fed rats for total cholesterol at the dose of 0.3 mg/kg determined by Chronic screen test; type: functional
Rattus norvegicus [6] = test: Effect on the plasma Cholesterol level in rats at the dose of 0.1 mg/kg by Acute screen test; type: functional, organism-based; set-up: dose 0.1 mg/kg
Rattus norvegicus [7] = test: Effect on the Cholesterol fed rats for total cholesterol level in rats at the dose of 0.01 mg/kg by Chroinc screen test; type: functional
Rattus norvegicus [8] = test: Effect on the Cholesterol fed rats for total cholesterol level in rats at the dose of 3 mg/kg by Chroinc screen test; type: functional
Rattus norvegicus [9] = test: Evaluated for %change in cholesterol fed rats at the dose of 3 mg/kg determined by Acute screen test; type: functional
Rattus norvegicus [10] = test: Effect on the Cholesterol fed rats for HDL-C in rats at the dose of 1 mg/kg by Chroinc screen test; type: functional; further: unit not given here
Rattus norvegicus [11] = test: Evaluated for %change in cholesterol fed rats for non-HDL-C at the dose of 0.001 mg/kg determined by Chronic screen test; type: functional
Rattus norvegicus [12] = test: Effect on the Cholesterol fed rats for non-HDL-C in rats at the dose of 3 mg/kg by Chroinc screen test; type: functional; further: unit not given here
Rattus norvegicus [13] = test: Effect on the Cholesterol fed rats for total cholesterol level in rats at the dose of 0.3 mg/kg by Chroinc screen test; type: functional
Rattus norvegicus [14] = test: Effect on the Normal, Chow fed rats for Plasma total triglyceride level in rats at the dose of 30 mg/kg; type: functional, organism-based; set-up: dose 30 mg/kg
Rattus norvegicus [15] = test: Effect on the Cholesterol fed rats for non-HDL-C in rats at the dose of 10 mg/kg by Chroinc screen test; type: functional
Rattus norvegicus [16] = test: Effect on the Cholesterol fed rats for total cholesterol level in rats at the dose of 10 mg/kg by Chroinc screen test; type: functional; further: unit not given here
Rattus norvegicus [17] = test: Evaluated for %change in cholesterol fed rats for HDL-C at the dose of 0.03 mg/kg determined by Chronic screen test; type: functional
Rattus norvegicus [18] = test: Evaluated for %change in Normal, Chow fed rats for total cholesterol plasma level in rats at the dose of 30 mg/kg; type: functional
Rattus norvegicus [19] = test: Evaluated for %change in cholesterol fed rats for total cholesterol at the dose of 0.1 mg/kg determined by Chronic screen test; type: functional
Rattus norvegicus [20] = test: Evaluated for %change in cholesterol fed rats at the dose of 1 mg/kg determined by Acute screen test; type: functional
Rattus norvegicus [21] = test: Evaluated for %change in cholesterol fed rats for HDL-C at the dose of 0.001 mg/kg determined by Chronic screen test; type: functional
Rattus norvegicus [22] = test: Evaluated for %change in cholesterol fed rats at the dose of 0.3 mg/kg determined by Acute screen test; type: functional
Rattus norvegicus [23] = test: Evaluated for %change in cholesterol fed rats for non-HDL-C at the dose of 0.03 mg/kg determined by Chronic screen test; type: functional
Oryctolagus cuniculus [24] = test: Effect on Rabbits (Fed a Cholesterol-Free Casein Diet ) for plasma cholesterol at the dose of 1 mg/kg (post treatment); type: functional, organism-based; set-up: dose 1 mg/kg
Oryctolagus cuniculus [25] = test: Effect on Rabbits (Fed a Cholesterol-Free Casein Diet ) for plasma cholesterol at the dose of 3 mg/kg (post treatment); type: functional, organism-based; set-up: dose 3 mg/kg
Rattus norvegicus [26] = test: Evaluated for %change in Normal, Chow fed for rats Plasma total triglyceride plasma level in rats at the dose of 3 mg/kg; type: functional
Rattus norvegicus [27] = test: Effect on the Cholesterol fed rats for total cholesterol level in rats at the dose of 1 mg/kg by Chroinc screen test; type: functional; further: unit not given here
Rattus norvegicus [28] = test: Evaluated for %change in Normal, Chow fed rats for total cholesterol plasma level in rats at the dose of 3 mg/kg; type: functional
Rattus norvegicus [29] = test: Evaluated for %change in cholesterol fed rats for total cholesterol at the dose of 10 mg/kg determined by Chronic screen test; type: functional
Rattus norvegicus [30] = test: Evaluated for %change in cholesterol fed rats at the dose of 0.1 mg/kg determined by Acute screen test; type: functional
Rattus norvegicus [31] = test: Effect on the Cholesterol fed rats for non-HDL-C in rats at the dose of 0.001 mg/kg by Chroinc screen test; type: functional
Rattus norvegicus [32] = test: Effect on the Cholesterol fed rats for HDL-C in rats at the dose of 10 mg/kg by Chroinc screen test; type: functional
Oryctolagus cuniculus [33] = test: Effect on Rabbits (Fed a Cholesterol-Free Casein Diet ) for plasma cholesterol at the dose of 1 mg/kg (pretreatment); type: functional, organism-based; set-up: dose 1 mg/kg
Rattus norvegicus [34] = test: Evaluated for %change in cholesterol fed rats for HDL-C at the dose of 0.1 mg/kg determined by Chronic screen test; type: functional
Rattus norvegicus [35] = test: Effect on the Cholesterol fed rats for HDL-C in rats at the dose of 0.1 mg/kg by Chroinc screen test; type: functional
Rattus norvegicus [36] = test: Effect on the Cholesterol fed rats for total cholesterol level in rats at the dose of 0.03 mg/kg by Chroinc screen test; type: functional; further: unit not given here
Rattus norvegicus [37] = test: Effect on the Cholesterol fed rats for HDL-C in rats at the dose of 0.03 mg/kg by Chroinc screen test; type: functional; further: unit not given here
Rattus norvegicus [38] = test: Effect on the plasma cholesterol level in rats at the dose of 3 mg/kg by Acute screen test; type: functional, organism-based; set-up: dose 3 mg/kg
Rattus norvegicus [39] = test: Evaluated for %change in cholesterol fed rats for non-HDL-C at the dose of 1 mg/kg determined by Chronic screen test; type: functional
Rattus norvegicus [40] = test: Effect on the Cholesterol fed rats for non-HDL-C in rats at the dose of 1 mg/kg by Chroinc screen test; type: functional
Rattus norvegicus [41] = test: Evaluated for %change in cholesterol fed rats for non-HDL-C at the dose of 0.01 mg/kg determined by Chronic screen test; type: functional
Rattus norvegicus [42] = test: Evaluated for %change in cholesterol fed rats for total cholesterol at the dose of 0.01 mg/kg determined by Chronic screen test; type: functional
Rattus norvegicus [43] = test: Effect on the plasma Cholesterol level in rats at the dose of 0.3 mg/kg by Acute screen test; type: functional, organism-based; set-up: dose 0.3 mg/kg
Rattus norvegicus [44] = test: Evaluated for %change in Normal, Chow fed for rats Plasma total triglyceride plasma level in rats at the dose of 10 mg/kg; type: functional
Rattus norvegicus [45] = test: Effect on the Cholesterol fed rats for total cholesterol level in rats at the dose of 0.1 mg/kg by Chroinc screen test; type: functional; further: unit not given here
Rattus norvegicus [46] = test: Effect on the Cholesterol fed rats for total cholesterol level in rats at the dose of 0.001 mg/kg by Chroinc screen test; type: functional
Rattus norvegicus [47] = test: Evaluated for %change in cholesterol fed rats for non-HDL-C at the dose of 10 mg/kg determined by Chronic screen test; type: functional
Rattus norvegicus [48] = test: Effect on the Normal, Chow fed rats for Plasma total triglyceride level in rats at the dose of 10 mg/kg; type: functional, organism-based; set-up: dose 10 mg/kg
Rattus norvegicus [49] = test: Effect on the Cholesterol fed rats for non-HDL-C in rats at the dose of 0.3 mg/kg by Chroinc screen test; type: functional; further: unit not given here
Rattus norvegicus [50] = test: Evaluated for %change in cholesterol fed rats for non-HDL-C at the dose of 0.3 mg/kg determined by Chronic screen test; type: functional

CC(C)c1cc(C(C)C)c(CC(=O)NS(=O)(=O)Oc2c(C(C)C)cccc2C(C)C)c(C(C)C)c1 [AVASIMIBE]
Plasma cholesterol (Rattus norvegicus [1]): 51 mg/dL
Change (Rattus norvegicus [2]): 140%
Change (Rattus norvegicus [3]): -38%
Change (Rattus norvegicus [4]): -59%
Change (Rattus norvegicus [5]): -60%
Plasma cholesterol (Rattus norvegicus [6]): 124 mg/dL
TC (Rattus norvegicus [7]): 619
TC (Rattus norvegicus [8]): 92
Change (Rattus norvegicus [9]): -64%
HDL-C (Rattus norvegicus [10]): 25
Change (Rattus norvegicus [11]): 3%
Non-HDL-C (Rattus norvegicus [12]): 59
TC (Rattus norvegicus [13]): 90
Plasma TG (Rattus norvegicus [14]): 58 mg/dL
Non-HDL-C (Rattus norvegicus [15]): 33
TC (Rattus norvegicus [16]): 69
Change (Rattus norvegicus [17]): -12%
Change (Rattus norvegicus [18]): -30%
Change (Rattus norvegicus [19]): -41% and -40%
Change (Rattus norvegicus [20]): -60%
Change (Rattus norvegicus [21]): -3%
Change (Rattus norvegicus [22]): -56%
Change (Rattus norvegicus [23]): -38%
Plasma cholesterol (Oryctolagus cuniculus [24]): 184 mg/dL
Plasma cholesterol (Oryctolagus cuniculus [25]): 171 mg/dL
Change (Rattus norvegicus [26]): -44%
TC (Rattus norvegicus [27]): 86
Change (Rattus norvegicus [28]): -16%
Change (Rattus norvegicus [29]): -69%
Change (Rattus norvegicus [30]): -32%
Non-HDL-C (Rattus norvegicus [31]): 535
HDL-C (Rattus norvegicus [32]): 36
Plasma cholesterol (Oryctolagus cuniculus [33]): 215 mg/dL
Change (Rattus norvegicus [34]): 17% and 7%
HDL-C (Rattus norvegicus [35]): 16 and 18
TC (Rattus norvegicus [36]): 334
HDL-C (Rattus norvegicus [37]): 15
Plasma cholesterol (Rattus norvegicus [38]): 66 mg/dL
Change (Rattus norvegicus [39]): -70%
Non-HDL-C (Rattus norvegicus [40]): 61
Change (Rattus norvegicus [41]): 17%
Change (Rattus norvegicus [42]): 16%
Plasma cholesterol (Rattus norvegicus [43]): 81 mg/dL
Change (Rattus norvegicus [44]): -55%
TC (Rattus norvegicus [45]): 131 and 323
TC (Rattus norvegicus [46]): 551
Change (Rattus norvegicus [47]): -84%
Plasma TG (Rattus norvegicus [48]): 75 mg/dL
Non-HDL-C (Rattus norvegicus [49]): 70
Change (Rattus norvegicus [50]): -66%

Source: ChEMBL document CHEMBL1129601, “Inhibitors of acyl-CoA: cholesterol O-acyl transferase (ACAT) as hypocholesterolemic agents. CI-1011: an acyl sulfamate with unique cholesterol-lowering activity in animals fed noncholesterol-supplemented diets” (J Med Chem, 1996)
